Experiments:
5 YSY neuroblastoma [1] = experiment: Myoinositol metabolism (accumulation and incorporation) in neuroblastoma cells cultured in glucose; assay type: cell-based; details: glucose 30 mM, substance 10⁻⁵ M; for Myoinositol Incorporation: fraction linked to the membranes
Method: A diabetic neuropathy in vitro model has been carried out using neuroblastoma cells cultured in chronic hyperglucosemia conditions. This condition causes the typical diabetes mellitus dismetabolic effects as the polyols (sorbitol) accumulation, the myoinositol reduction and the reduction of the Na pump functionality. […] et al. - Alan R., Liss. […] In the groups from 2) to 4) glucose (30 mM) has been added to the culture renewing the culture medium and then adding glucose every 72 hours, during a three weeks period. In the group 3), at the same time of the glucose, one of the substances inhibiting proteic ADP-ribosilation reported in the table 1 (amount 10^-5 M) has been added. In the group 4), at the same time of the glucose one of the substances non inhibiting proteic ADP-ribosilation reported in the table 1 (dermatan sulphate and tolrestat) in amount 10^-5 M has been added. On the experimental groups above described also the myoinositol metabolism alteration has been studied which has been valued by the method described by Yorek et al., in "Diabetes", pag. […]

[2] = tested on: substance P axonal transport; experiment: Substance P axonal transport in ligated sciatic nerve of alloxan-diabetic rats; assay type: in vivo; details: for anterograde and retrograde accumulation of substance P, in words: 10 mg/kg daily; for substance P content, NSc: contralateral non-ligated sciatic nerve; for substance P content, NSc / substance P content, D / substance P content, P2 / substance P content, P1: ± ES; for substance P content, D: distal segment; for substance P content, P1: proximal segment contiguous to ligature
Excerpt: The effectiveness verification of the substances inhibiting proteic ADP-ribosilation in preventing the diabetes mellitus complications has been carried out in vivo on rats in diabetes mellitus models induced by alloxan. With this purpose, […] substance P axonal transport in the five following experimental groups, each consisting of N° 8 rats: • 1) control group; • 2) diabetic rats group; • 3) diabetic rats group treated with vitamin K1 (substance inhibiting the proteic ADP-ribosilation); • 4) diabetic rats group treated with arachidic acid (substance inhibiting the proteic ADP-ribosilation); • 5) diabetic rats group treated with dermatan sulphate (substance non inhibiting proteic ADP-ribosilation).
The Sprague Dawley strain rats used, 250 gr weight, male sex, were supplied by Charles River.
(§1) The diabetes has been induced in the rats of the groups from 2) to 5) by a single subcutaneous injection of 100 mg/kg of alloxan dissolved in pH 4.5 0.1 M citrate-phosphate buffer solution.
The pharmacological treatment of the groups 3) and 5) respectivelly with vitamin K1 and dermatansulphate, has been carried out by intraperitoneal administration of said substances dissolved in physiologic solution at 10 mg/kg dose. […] Groups 1) and 2) have been injected with an equivalent volume of physiologic solution.
(§2) The pharmacological treatment started 7 days after the diabetes induction and prosecuted until the sacrifice with daily administration.
To estimate the axonal transport of substance P the accumulation of the substance P in three segments of sciatic nerve two millimeters long was estimated 24 hours from the ligature of the same nerve.
The operations of the sciatic nerve ligature, of the tissues withdrawal from the same and of substance P extraction from the tissues for the radioimmunologic dosage, have been carried out by the following way.
The animals were anaesthetised by intraperitoneal administration of 35 mg/kg of pentobarbital dissolved in 0.9% physiologic solution. After wright thigh epilation and cutis section the sciatic nerve was exposed at half thigh level (at least 0.8 cm from the popliteal cavity where the nerve ramifies). The ligature has been made by sterile silk thread which has been twice knotted to about half of the exposed nerve portion.
The sacrifice has been accomplished after 8 weeks from the diabetes induction, after 24 hours from the ligature.
Immediately after the sacrifice, in the former operation seat, the removal of the whole sciatic nerve has been made and finally from this the three segments each about 2 mm long have been withdrawn: segment P1 (proximal contiguous to the ligature); segment P2 (immediately above P1) and segment D (distal contiguous to the ligature), as it is shown in fig. 1.
The withdrawn tissues have been placed in polypropylene test-tubes held in ice and containing a volume of acetic acid 1 N in 10:1 ratio with the tissue weight. Then the tissues homogenization has been done by a continuous speed variation homogenizer (Heavy Stirrer, mod. 12) and a polytetrafluoroethylene pestle perfectly adherent to the test-tube walls. After the homogenate aliquots required for the tissue proteins dosage have been withdrawn (0.1 ml) the test-tubes have been immerged in a boiling water bath for 8-10 minutes, for inactivating the peptidases eventually still present in the samples, and then left for about 30 minutes at 4 °C for completely cooling.
The […] obtained by centrifugation of the homogenate at 40.000 x g for 10 minutes, has been lyophilized and the dry residue has been reconstituted in distilled water, stirred by vortex and centrifuged at 40.000 x g for 10 minutes. From the samples so reconstituted the suitable aliquots required for the substance P radioimmunological dosage have been withdrawn. […]

[3] = Body weight and glycemia control in alloxan-diabetic rats; assay type: in vivo; details: diabetic animals 8 weeks after the diabetes induction, 10 mg/kg daily; for Glycemia: caudal vein blood before sacrifice
Method: The effectiveness verification of the substances inhibiting proteic ADP-ribosilation in preventing the diabetes mellitus complications has been carried out in vivo on rats in diabetes mellitus models induced by alloxan.
as §1
Groups 1) and 2) have been injected with an equivalent volume of physiologic solution.
as §2
The blood samples have been withdrawn at the caudal vein level before the animals sacrifice.

transducin = experiment: In vitro ADP-ribosilation of retina membrane proteins G from treated diabetic rats (autoradiogram); assay type: in vivo; details: retina membrane fraction of diabetic rats treated at 50 mg/kg
Excerpt: A further experimentation on the silybin effect on the ADP-ribosilation of retina proteins G has been carried out. The evaluation of said proteins ribosilability has been performed by the method described by Duman et al. in J. Neurochem. (1991). pages 2124-2132.
For said experimentation the retinas withdrawn from the rats of the groups 1a), 2a) and 3a) used for the experimentation on the substance P axonal transport, were used.
The retinas have been homogenized and subdivided in cellular fractions and the membrane fraction has been selected for the ADP-ribosilation reaction in vitro.
2 which represents the autoradiogram of an electrophoretic gel obtained from said membrane cellular fraction.
Column 1P derives from the retinas of the control group rats, column 2P derives from the retinas of the diabetic rats and column 3P derives from the retinas of the diabetic rats treated with silybin at a 50 mg/kg dose.

5 YSY neuroblastoma [4] = experiment: Neuritogenesis after retinoic acid in neuroblastoma cells cultured in chronic hyperglucosemia (in vitro diabetic neuropathy model); assay type: cell-based; details: substance 10⁻⁵ M; for Percentage of cells with neurits after retinoic acid addition: glucose 30 mM for three weeks
Method: A diabetic neuropathy in vitro model has been carried out using neuroblastoma cells cultured in chronic hyperglucosemia conditions. This condition causes the typical diabetes mellitus dismetabolic effects as the polyols (sorbitol) accumulation, the myoinositol reduction and the reduction of the Na pump functionality. […] A. Shahar et al. - Alan R., Liss.
In the groups from 2) to 4) glucose (30 mM) has been added to the culture renewing the culture medium and then adding glucose every 72 hours, during a three weeks period.
In the group 3), at the same time of the glucose, one of the substances inhibiting proteic ADP-ribosilation reported in the table 1 (amount 10⁻⁵ M) has been added.
In the group 4), at the same time of the glucose one of the substances non inhibiting proteic ADP-ribosilation reported in the table 1 (dermatan sulphate and tolrestat) in amount 10⁻⁵ M has been added.
Subsequently retinoic acid (5 x 10⁻⁶ M) has been added to the cultures 1) to 4) for causing the cells neuritogenesis which has been valued by the observation at the optic microscope considering as neurit the cytoplasmatic extension having a length corresponding at least to twice as the diameter of the cell.

[5] = 10 mg/kg daily (vitamin K1, dermatansulphate intraperitoneal; arachidic acid oral), 8 weeks after induction
[6] = 24 hours after ligature, 10 mg/kg daily (vitamin K1, dermatansulphate intraperitoneal; arachidic acid oral)
[7] = proximal segment above P1, 24 hours after ligature, 10 mg/kg daily (vitamin K1, dermatansulphate intraperitoneal; arachidic acid oral)
[8] = second experiment, oral 50 mg/kg/die

Molecule	Myoinositol Incorporation (5 YSY neuroblastoma [1])	Myoinositol Accumulation (5 YSY neuroblastoma [1])	also measured
O=C1NC(=O)c2cccc3cccc1c23 [1.8 Naphthalimide, 1.8-naphthalimide]	0.91 n mol/µg of protein	9.20 n mol/µg of protein	–
O=c1[nH]c2ccc([N+](=O)[O-])cc2c2ccccc12 [2-nitro-(6(5H)-phenanthridinone, 2-nitro-6(5H)-phenanthridinone]	0.81 n mol/µg of protein	8.51 n mol/µg of protein	–
Nc1ccc2c3c(cccc13)C(=O)NC2=O [4-amino-1.8-naphthalimide]	0.78 n mol/µg of protein	8.01 n mol/µg of protein	–
CC(=CCC1=C(C)C(=O)c2ccccc2C1=O)CCCC(C)CCCC(C)CCCC(C)C (stereo not drawn) [Vit K1, vitamin K1]	0.98 n mol/µg of protein	9.66 n mol/µg of protein	anterograde and retrograde accumulation of substance P, in words [2]: normalized; substance P content, NSc [2, 5]: 1.28±0.008 ng/mg of tissular protein; substance P content, D [2, 6]: 1.96±0.08 ng/mg of tissular protein; substance P content, P2 [2, 7]: 2.44±0.09 ng/mg of tissular protein; substance P content, P1 [2, 6]: 8.72±0.16 ng/mg of tissular protein; Body weight [3]: 244±12.6 gr.; Glycemia [3]: 438 ± 6.4 mg/dL
CC1=CC(=O)c2ccccc2C1=O [Vit K3, vitamin K3]	0.85 n mol/µg of protein	8.56 n mol/µg of protein	–
CCCCCCCCCCCCCCCCCCCC(=O)O [arachidic acid]	0.92 n mol/µg of protein	9.02 n mol/µg of protein	anterograde and retrograde accumulation of substance P, in words [2]: normalized; substance P content, NSc [2, 5]: 1.24±0.006 ng/mg of tissular protein; substance P content, D [2, 6]: 1.80±0.06 ng/mg of tissular protein; substance P content, P2 [2, 7]: 1.40±0.05 ng/mg of tissular protein; substance P content, P1 [2, 6]: 9.44±0.14 ng/mg of tissular protein; Body weight [3]: 239±12.6 gr.; Glycemia [3]: 471 ± 9.4 mg/dL
O=c1cc(-c2ccccc2)oc2ccccc12 [flavone]	0.67 n mol/µg of protein	6.54 n mol/µg of protein	–
CCCCC/C=C\C/C=C\CCCCCCCC(=O)O [linoleic acid (C18:2-cis-9.12), linoleic acid]	0.88 n mol/µg of protein	8.66 n mol/µg of protein	–
CC/C=C\C/C=C\C/C=C\CCCCCCCC(=O)O [linolenic acid (C18:3-cis-9.12.15), linolenic acid]	0.81 n mol/µg of protein	8.44 n mol/µg of protein	–
CCCCCCCCCCCCCC(=O)O [myristic acid]	0.85 n mol/µg of protein	8.91 n mol/µg of protein	–
CO[C@@H]1[C@@H](OC(N)=O)[C@@H](O)[C@H](Oc2ccc3c(O)c(NC(=O)c4ccc(O)c(CC=C(C)C)c4)c(=O)oc3c2C)OC1(C)C [novobiocin]	0.60 n mol/µg of protein	6.0 n mol/µg of protein	–
CCCCCCCCCCCCCCCC(=O)O [palmitic acid]	0.89 n mol/µg of protein	9.39 n mol/µg of protein	–
COc1cc(C2Oc3cc([C@H]4Oc5cc(O)cc(O)c5C(=O)[C@@H]4O)ccc3OC2CO)ccc1O (stereo partly drawn) [silybin]	–	–	substance P content, NSc [2, 8]: 2.26±0.040 ng/mg of tissular protein; substance P content, D [2, 8]: 4.05±0.071 ng/mg of tissular protein; substance P content, P2 ([2]; second experiment, proximal segment above P1, oral 50 mg/kg/die): 7.07±0.59 ng/mg of tissular protein; substance P content, P1 [2, 8]: 11.42±0.18 ng/mg of tissular protein; transducin ribosilability, in words (transducin): maintained
CCCCCCCCCCCCCCCCCC(=O)O [stearic acid]	0.95 n mol/µg of protein	9.89 n mol/µg of protein	–
COc1ccc2c(C(=S)N(C)CC(=O)O)cccc2c1C(F)(F)F [tolrestat]	–	–	prevention of the diabetic neuropathy (neuritogenesis), in words (5 YSY neuroblastoma [4]; glucose 30 mM): does not exercise any effect for preventing the diabetic neuropathy
vitamin K2 [Vit K2]	0.88 n mol/µg of protein	8.99 n mol/µg of protein	Percentage of cells with neurits after retinoic acid addition (5 YSY neuroblastoma [4]; 3 days in retinoic acid): 45%; Percentage of cells with neurits after retinoic acid addition (5 YSY neuroblastoma [4]; 7 days in retinoic acid): 65%; Percentage of cells with neurits after retinoic acid addition (5 YSY neuroblastoma [4]; 12 days in retinoic acid): 98%
